Experiments:
[1] = molecular target: T1, TA12105 (T. annulata cytoplasmic HSP90) (Theileria annulata, UniProt Q4UDU8); assay: intrinsic tryptophan fluorescence quenching (ATPase Km […]); type: binding
[2] = molecular target: T1, TA12105 (T. annulata cytoplasmic HSP90); assay: biochemical

T1 sequence (Q4UDU8 whole entry): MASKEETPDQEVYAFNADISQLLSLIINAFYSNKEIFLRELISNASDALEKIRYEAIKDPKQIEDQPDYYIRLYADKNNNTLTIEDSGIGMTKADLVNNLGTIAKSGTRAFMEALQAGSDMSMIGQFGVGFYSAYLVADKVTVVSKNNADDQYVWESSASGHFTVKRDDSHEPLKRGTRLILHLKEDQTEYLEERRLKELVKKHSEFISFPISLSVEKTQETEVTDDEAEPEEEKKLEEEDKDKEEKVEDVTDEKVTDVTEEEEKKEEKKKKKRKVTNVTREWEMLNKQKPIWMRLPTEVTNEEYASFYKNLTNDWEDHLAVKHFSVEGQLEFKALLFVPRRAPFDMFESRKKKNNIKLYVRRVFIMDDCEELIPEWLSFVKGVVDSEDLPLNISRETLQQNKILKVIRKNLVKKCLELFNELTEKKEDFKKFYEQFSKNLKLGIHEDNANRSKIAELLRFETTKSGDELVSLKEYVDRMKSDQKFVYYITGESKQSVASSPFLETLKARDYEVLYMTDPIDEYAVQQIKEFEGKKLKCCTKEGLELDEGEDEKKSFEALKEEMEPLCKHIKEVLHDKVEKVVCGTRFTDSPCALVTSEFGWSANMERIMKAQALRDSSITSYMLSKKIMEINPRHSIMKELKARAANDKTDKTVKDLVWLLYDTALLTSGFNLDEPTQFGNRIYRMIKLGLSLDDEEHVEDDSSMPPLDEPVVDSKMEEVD

Question: `Nc1ncnc2c1ncn2[C@@H]1O[C@H](COP(=O)(O)OP(=O)(O)OP(=O)(O)O)[C@@H](O)[C@H]1O` [ATP] was tested. Which Kd [1] did it give?
Answer: Its Kd is 179 µM.

Question: For `C=CCNC1=C2C[C@@H](C)C[C@H](OC)[C@H](O)[C@@H](C)/C=C(\C)[C@H](OC(N)=O)[C@@H](OC)/C=C\C=C(/C)C(=O)NC(=CC1=O)C2=O` [17-AAG], which Kd [2] is on record?
Answer: The Kd was 7.67 µM.
